Source: patent US5986108A, “4-substitued-3-[1 or 2 amino acid residue]-azetidin-2-one derivatives useful as cysteine proteinase inhibitor” (Synphar Laboratories, Inc., priority 1997, dated 1999)

Key:
Cathepsin B = Cathepsin B (Rattus norvegicus, UniProt P00787); assay: In vitro assay of inhibition of Cathepsin B (N-CBZ-Phe-Arg-AMC substrate); format: biochemical; conditions: r rat CathB, pH5.1, 10 min preincubation at room temperature; read-out: IC50, Cathepsin B
Protocol: After 10 min of incubation at room temperature a 20 μl of 5 mM substrate (N-CBZ-Phe-Arg-AMC, dissolved in DMSO) was added to initiate reaction. Reading is followed up for 10 min at the Fluoroscan reader (excitation at 380 nm, emission at 460 nm).

Cathepsin L = Cathepsin L (Rattus norvegicus, UniProt P07154); assay: Assay of inhibition of Cathepsin L (N-CBZ-Phe-Arg-AMC substrate); format: biochemical; conditions: r rat CathL, pH5.0, 10 min preincubation at room temperature; read-out: IC50, Cathepsin L
Protocol: After 10 min of incubation at room temperature a 20 μl of 1 mM substrate (N-CBZ-Phe-Arg-AMC, dissolved in DMSO) was added to initiate reaction. Reading is followed up for 10 min at the Fluoroscan reader (excitation at 380 nm, emission at 460 nm).

Cathepsin L, sequence (P07154 114-334): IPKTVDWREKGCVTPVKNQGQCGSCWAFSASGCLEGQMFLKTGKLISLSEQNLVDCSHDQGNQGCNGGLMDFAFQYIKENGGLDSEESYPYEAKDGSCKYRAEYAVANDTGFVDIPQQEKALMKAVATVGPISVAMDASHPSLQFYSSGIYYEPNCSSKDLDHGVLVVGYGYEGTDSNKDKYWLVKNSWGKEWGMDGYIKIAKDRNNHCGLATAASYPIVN
Cathepsin B, sequence (P00787 80-339): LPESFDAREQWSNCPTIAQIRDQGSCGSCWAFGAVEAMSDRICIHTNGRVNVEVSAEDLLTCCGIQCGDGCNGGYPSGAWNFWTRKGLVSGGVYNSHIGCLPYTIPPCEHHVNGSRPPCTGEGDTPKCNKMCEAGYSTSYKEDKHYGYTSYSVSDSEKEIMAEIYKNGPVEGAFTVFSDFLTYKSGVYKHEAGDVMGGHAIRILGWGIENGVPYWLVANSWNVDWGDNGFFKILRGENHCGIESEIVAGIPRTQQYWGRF

Row | Structure (SMILES) | IC50 (Cathepsin B) [nM] | IC50 (Cathepsin L) [nM]
1 | CC(=O)O[C@H]1[C@H](NC(=O)[C@H](Cc2ccccc2)NC(=O)OCc2ccccc2)C(=O)N1S(=O)(=O)O [Example 32, (3S,4S)-3-(N-benzyloxycarbonyl-L-phenylalanyl)-amino-4-acetoxy-azetidin-2-one-1-sulfonic acid] | 368 | 26
2 | CC(=O)O[C@@H]1NC(=O)[C@H]1NC(=O)[C@H](Cc1ccccc1)NS(=O)(=O)c1ccc2ccccc2c1 [Example 19, (3S,4S)-3-{N-(naphthalen-2-yl-sulfonyl)-L-phenylalanyl}-amino-4-acetoxy-azetidin-2-one] | 7220 | 416
3 | CC(=O)O[C@@H]1NC(=O)[C@H]1NC(=O)[C@H](Cc1ccccc1)NC(=O)/C=C/c1cccs1 [Example 17, (3S,4S)-3-[N-{3-(thiophen-2-yl)-trans-prop-2-enoyl}-L-phenylalanyl]-amino-4-acetoxy-azetidin-2-one] | 5370 | 31.5
4 | CC(=O)O[C@@H]1NC(=O)[C@H]1NC(=O)[C@H](Cc1ccccc1)NC(=O)CCc1ccccc1 [Example 10, (3S,4S)-3-{N-(3-phenylpropionoyl)-L-phenylalanyl}-amino-4-acetoxy-azetidin-2-one] | 470 | 35
5 | O=C(CCc1ccccc1)N[C@@H](Cc1ccccc1)C(=O)N[C@@H]1C(=O)N[C@H]1Oc1ccc(C[C@H](NC(=O)OCc2ccccc2)C(=O)OC(c2ccccc2)c2ccccc2)cc1 [Example 29A, (3S,4S)-3-{N-(3-phenylpropionoyl)-L-phenylalanyl}-amino-4-{4-(L-2-N-benzyloxycarbonylamino-2-diphenylmethoxycarbonyl-ethyl)-phenoxy}-azetidin-2-one] | 590 | 160
6 | O=C(N[C@@H](Cc1ccccc1)C(=O)N[C@@H]1C(=O)N(S(=O)(=O)O)[C@H]1Sc1ccccc1)OCc1ccccc1 [Example 31, (3R,4S)-3-(N-benzyloxycarbonyl-L-phenylalanyl)-amino-4-phenylthio-azetidin-2-one-1-sulfonic acid] | 8430 | 67
7 | CC(=O)Oc1ccc(OCC(=O)N[C@@H](Cc2ccccc2)C(=O)N[C@@H]2C(=O)N[C@H]2OC(C)=O)cc1 [Example 15, (3S,4S)-3-[N-{2-(4-acetoxyphenoxy)-ethanoyl}-L-phenylalanyl]-amino-4-acetoxy-azetidin-2-one] | 6330 | 2070
8 | O=C(N[C@@H](Cc1ccccc1)C(=O)N[C@@H]1C(=O)N[C@H]1Sc1ccccc1)OCc1ccccc1 [Example 20, (3R,4S)-3-(N-benzyloxycarbonyl-L-phenylalanyl)-amino-4-phenylthio-azetidin-2-one] |  | 0.108

Next, values leading:

Row | IC50 (Cathepsin B) [nM] | IC50 (Cathepsin L) [nM] | Structure (SMILES)
9 | > 68000 | 5260 | N[C@@H](Cc1ccccc1)C(=O)N[C@@H]1C(=O)N[C@H]1Oc1ccc(C(=O)O)cc1 [Example 30B, (3S,4S)-3-(L-phenylalanyl)-amino-4-(4-carboxyphenoxy)-azetidin-2-one]
10 | 21800 | 38 | O=C(CCc1ccccc1)N[C@@H](Cc1ccccc1)C(=O)N[C@@H]1C(=O)N[C@H]1Oc1ccc(C(=O)O)cc1 [Example 27B, (3S,4S)-3-{N-(3-phenylpropionoyl)-L-phenylalanyl}-amino-4-(4-carboxyphenoxy)-azetidin-2-one]
11 | 39200 | 2310 | CC(=O)O[C@@H]1NC(=O)[C@H]1NC(=O)[C@H](Cc1ccccc1)NC(=O)CCN1CCOCC1 [Example 13]
12 | 76 | 228 | O=C(CCc1ccccc1)N[C@@H](Cc1ccccc1)C(=O)N[C@@H]1C(=O)N[C@H]1Oc1cccc(C(=O)O)c1 [Example 28, (3S,4S)-3-{N-(3-phenylpropionoyl)-L-phenylalanyl}-amino-4-(3-carboxyphenoxy)-azetidin-2-one]
13 | 2190 | 55.6 | O=C(CCc1ccccc1)N[C@@H](Cc1ccccc1)C(=O)N[C@@H]1C(=O)N[C@H]1Oc1ccccc1 [Example 26, (3S,4S)-3-{N-(3-phenylpropionoyl)-L-phenylalanyl}-amino-4-phenoxy-azetidin-2-one]
